Patent publication US11926626B2, “Heterocyclic GLP-1 agonists” (Gasherbrum Bio, Inc., priority 2020, dated 2024)

Molecular target: GLP-1 Receptor (Homo sapiens, UniProt P43220)
Test: GLP-1R agonist cAMP stimulation assay (HEK293/GLP1R/CRE-Luc cells, HTRF cAMP)
Type: cell-based
Conditions: 30 min, 37° C.
Procedure: Activation of GLP-1 receptor is known to stimulate cyclic AMP (cAMP) production in cells which indicates primary coupling to the Gαs subunit of the G protein heterotrimeric complex.
To optimize functional activity directed toward Gαs coupling, a HEK293/CRE-Luc cell line developed by HDB stably expressing the GLP-1 Receptor was used. […] 1×10^5 cells/mL HEK293/GLP1R/CRE-LUC(HD Biosciences) cell suspensions prepared with assay buffer[DPBS containing 0.5 mM IBMX (Sigma, Cat #I5879) and 0.1% BSA (GENVIEW, Cat #FA016-100g)], 10 uL cell suspensions were added to each well of previous generated assay plate which already contains 50 nl compound at 200×concentration using ThermoFisher Multidrop Combi (1000 cells/well). Seal the plate and incubate at 37° C. with 5% CO2 for 30 min.
After incubation the cAMP assay signal was generated using cAMP dynamic 2 Kit (Cisbio). 5 μL cAMP-d2 working solution was added to each well, followed with 5 μL Anti-cAMP antibody-cryptate working solution added to each well using ThermoFisher Multidrop Combi. Incubate at room temperature for 1 hour protected from light.

[1] = HEK293/CRE-Luc cells stably expressing GLP-1 Receptor

GLP-1 Receptor, sequence (P43220 24-463): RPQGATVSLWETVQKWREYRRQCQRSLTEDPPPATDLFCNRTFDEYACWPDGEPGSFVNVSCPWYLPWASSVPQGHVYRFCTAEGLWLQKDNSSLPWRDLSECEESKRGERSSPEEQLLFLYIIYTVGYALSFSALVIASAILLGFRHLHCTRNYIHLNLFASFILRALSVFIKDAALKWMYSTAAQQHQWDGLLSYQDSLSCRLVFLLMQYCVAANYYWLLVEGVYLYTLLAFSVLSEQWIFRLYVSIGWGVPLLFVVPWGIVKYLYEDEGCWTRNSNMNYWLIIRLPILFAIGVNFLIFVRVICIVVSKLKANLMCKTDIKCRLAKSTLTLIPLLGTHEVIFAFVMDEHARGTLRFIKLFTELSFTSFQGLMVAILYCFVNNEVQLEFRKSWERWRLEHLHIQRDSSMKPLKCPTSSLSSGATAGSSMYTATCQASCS

| GLP1R cAMP Stimulation DR: pEC50 [1] | SMILES | GLP1R cAMP Stimulation DR: pEC50 |
| --- | --- | --- |
| 7.5 | O=C(O)c1ccc2nc(C[C@H]3CC[C@@H](Oc4cccc(Cc5ccc(Cl)cc5F)n4)CC3)n(C[C@@H]3CCO3)c2n1 [Compound 174a, 3-{[(2S)-oxetan-2-yl]methyl}-2-{[cis-4-({6-[(4-chloro-2-fluorophenyl)methyl]pyridin-2-yl}oxy)cyclohexyl]methyl}-3H-imidazo[4,5-b]pyridine-5-carboxylic acid] | – |
| 8.6 | Cn1c(C[C@H]2CC[C@H](Oc3ccnc(Cc4ccc(Cl)cc4)n3)CC2)nc2ccc(C(=O)O)nc21 [Compound 180a, 3-methyl-2-{[trans-4-({2-[(4-chlorophenyl)methyl]pyrimidin-4-yl}oxy)cyclohexyl]methyl}-3H-imidazo[4,5-b]pyridine-5-carboxylic acid] | – |
| 10.1 | O=C(O)c1ccc2nc(C[C@H]3CC[C@H](Oc4cccc(Cc5ccc(Cl)cc5)n4)CC3)n(C[C@@H]3CCO3)c2n1 [Compound 181a, 3-{[(2S)-oxetan-2-yl]methyl}-2-{[trans-4-({6-[(4-chlorophenyl)methyl]pyridin-2-yl}oxy)cyclohexyl]methyl}-3H-imidazo[4,5-b]pyridine-5-carboxylic acid] | – |
| 9.1 | O=C(O)c1ccc2nc(CN3CCC(Oc4nn(Cc5ccc(Cl)cc5F)cc4Cl)CC3)n(C[C@@H]3CCO3)c2n1 [Compound 183a, 2-{[4-({4-chloro-1-[(4-chloro-2-fluorophenyl)methyl]-1H-pyrazol-3-yl}oxy)piperidin-1-yl]methyl}-3-{[(2S)-oxetan-2-yl]methyl}-3H-imidazo[4,5-b]pyridine-5-carboxylic acid] | – |
| 9.2 | O=C(O)c1ccc2nc(Cc3ccc(Oc4ccnc(Cc5ccc(Cl)cc5)n4)cc3)n(C[C@@H]3CCO3)c2n1 [Compound 186a, 2-{[4-({2-[(4-chlorophenyl)methyl]pyrimidin-4-yl}oxy)phenyl]methyl}-3-{[(2S)-oxetan-2-yl]methyl}-3H-imidazo[4,5-b]pyridine-5-carboxylic acid] | – |
| 8.9 | O=C(O)c1ccc2nc(Cc3ccc(Oc4ccnc(Cc5ccc(Cl)cc5)n4)cc3)n(C[C@@H]3CCO3)c2c1 [Compound 187a, 2-{[4-({2-[(4-chlorophenyl)methyl]pyrimidin-4-yl}oxy)phenyl]methyl}-1-{[(2S)-oxetan-2-yl]methyl}-1H-1,3-benzodiazole-6-carboxylic acid] | – |
| 9.7 | O=C(O)c1ccc2nc(CN3CCC(Oc4ccnc(Cc5ccc(Cl)cc5)n4)CC3)n(Cc3cn[nH]c3)c2n1 [Compound 193, 3-((1H-pyrazol-4-yl)methyl)-2-((4-((2-(4-chlorobenzyl)pyrimidin-4-yl)oxy)piperidin-1-yl)methyl)-3H-imidazo[4,5-b]pyridine-5-carboxylic acid] | – |

Second part, the compound before the results:

| SMILES | GLP1R cAMP Stimulation DR: pEC50 [1] | GLP1R cAMP Stimulation DR: pEC50 |
| --- | --- | --- |
| O=C(O)c1ccc2nc(CN3CCC(C(F)(F)c4cccc(Cc5ccc(Cl)cc5F)n4)CC3)n(C[C@@H]3CCO3)c2n1 [Compound 173a, 2-{[4-({6-[(4-chloro-2-fluorophenyl)methyl]pyridin-2-yl}difluoromethyl)piperidin-1-yl]methyl}-3-{[(2S)-oxetan-2-yl]methyl}-3H-imidazo[4,5-b]pyridine-5-carboxylic acid] | – | 8.4 |
| O=C(O)c1ccc2nc(C[C@H]3CC[C@H](Oc4cccc(Cc5ccc(Cl)cc5F)n4)CC3)n(C[C@@H]3CCO3)c2n1 [Compound 174b, 3-{[(2S)-oxetan-2-yl]methyl}-2-{[trans-4-({6-[(4-chloro-2-fluorophenyl)methyl]pyridin-2-yl}oxy)cyclohexyl]methyl}-3H-imidazo[4,5-b]pyridine-5-carboxylic acid] | 9.9 | – |
| O=C(O)c1ccc2nc(C[C@H]3CC[C@@H](Oc4ccnc(Cc5ccc(Cl)cc5F)n4)CC3)n(C[C@@H]3CCO3)c2n1 [Compound 175a, 3-{[(2S)-oxetan-2-yl]methyl}-2-{[cis-4-({2-[(4-chloro-2-fluorophenyl)methyl]pyrimidin-4-yl}oxy)cyclohexyl]methyl}-3H-imidazo[4,5-b]pyridine-5-carboxylic acid] | 6.6 | – |
| O=C(O)c1ccc2nc(C[C@H]3CC[C@H](Oc4ccnc(Cc5ccc(Cl)cc5F)n4)CC3)n(C[C@@H]3CCO3)c2n1 [Compound 175b, 3-{[(2S)-oxetan-2-yl]methyl}-2-{[trans-4-({2-[(4-chloro-2-fluorophenyl)methyl]pyrimidin-4-yl}oxy)cyclohexyl]methyl}-3H-imidazo[4,5-b]pyridine-5-carboxylic acid] | 10.2 | – |
| O=C(O)c1ccc2nc(C[C@H]3CC[C@H](Oc4ccnc(Cc5ccc(Cl)cc5)n4)CC3)n(C[C@@H]3CCO3)c2c1 [Compound 176a, 1-{[(2S)-oxetan-2-yl]methyl}-2-{[trans-4-({2-[(4-chlorophenyl)methyl]pyrimidin-4-yl}oxy)cyclohexyl]methyl}-1H-1,3-benzodiazole-6-carboxylic acid] | 9.4 | – |
| O=C(O)c1ccc2nc(C[C@H]3CC[C@H](Oc4ccnc(Cc5ccc(Cl)cc5)n4)CC3)n(C[C@@H]3CCO3)c2n1 [Compound 177a, 3-{[(2S)-oxetan-2-yl]methyl}-2-{[trans-4-({2-[(4-chlorophenyl)methyl]pyrimidin-4-yl}oxy)cyclohexyl]methyl}-3H-imidazo[4,5-b]pyridine-5-carboxylic acid] | 10.4 | – |
| COCCn1c(C[C@H]2CC[C@H](Oc3ccnc(Cc4ccc(Cl)cc4)n3)CC2)nc2ccc(C(=O)O)nc21 [Compound 179a, 3-(2-methoxyethyl)-2-{[trans-4-({2-[(4-chlorophenyl)methyl]pyrimidin-4-yl}oxy)cyclohexyl]methyl}-3H-imidazo[4,5-b]pyridine-5-carboxylic acid] | 8.6 | – |
| N#Cc1ccc(Cc2nccc(O[C@H]3CC[C@H](Cc4nc5ccc(C(=O)O)nc5n4C[C@@H]4CCO4)CC3)n2)cc1 [Compound 182a, 3-{[(2S)-oxetan-2-yl]methyl}-2-{[trans-4-({2-[(4-cyanophenyl)methyl]pyrimidin-4-yl}oxy)cyclohexyl]methyl}-3H-imidazo[4,5-b]pyridine-5-carboxylic acid] | 10.2 | – |
| O=C(O)c1ccc2nc(CN3CCC(n4ncc5ccc(Cc6ccc(Cl)cc6F)nc54)CC3)n(C[C@@H]3CCO3)c2n1 [Compound 185a, 2-[(4-{6-[(4-chloro-2-fluorophenyl)methyl]-1H-pyrazolo[3,4-b]pyridin-1-yl}piperidin-1-yl)methyl]-3-{[(2S)-oxetan-2-yl]methyl}-3H-imidazo[4,5-b]pyridine-5-carboxylic acid] | 9.3 | – |
| O=C(O)c1ccc2nc(C[C@H]3CC[C@H](Oc4nc(Cc5ccc(Cl)cc5)ncc4F)CC3)n(C[C@@H]3CCO3)c2n1 [Compound 188a, 3-{[(2S)-oxetan-2-yl]methyl}-2-{[trans-4-({2-[(4-chlorophenyl)methyl]-5-fluoropyrimidin-4-yl}oxy)cyclohexyl]methyl}-3H-imidazo[4,5-b]pyridine-5-carboxylic acid] | 10.3 | – |
| O=C(O)c1ccc2nc(Cc3ccc(Oc4nc(Cc5ccc(Cl)cc5)ncc4F)cc3)n(C[C@@H]3CCO3)c2n1 [Compound 189a, 2-{[4-({2-[(4-chlorophenyl)methyl]-5-fluoropyrimidin-4-yl}oxy)phenyl]methyl}-3-{[(2S)-oxetan-2-yl]methyl}-3H-imidazo[4,5-b]pyridine-5-carboxylic acid] | 9.2 | – |
| O=C(O)c1ccc2nc(Cc3ccc(Oc4nc(Cc5ccc(Cl)cc5)ncc4F)cc3F)n(C[C@@H]3CCO3)c2n1 [Compound 190a, 2-{[4-({2-[(4-chlorophenyl)methyl]-5-fluoropyrimidin-4-yl}oxy)-2-fluorophenyl]methyl}-3-{[(2S)-oxetan-2-yl]methyl}-3H-imidazo[4,5-b]pyridine-5-carboxylic acid] | 9.4 | – |
| O=C(O)c1ccc2nc(Cc3ccc(Oc4nc(Cc5ccc(Cl)cc5)ncc4F)cc3F)n(C[C@@H]3CCO3)c2c1 [Compound 191a, 2-{[4-({2-[(4-chlorophenyl)methyl]-5-fluoropyrimidin-4-yl}oxy)-2-fluorophenyl]methyl}-1-{[(2S)-oxetan-2-yl]methyl}-1H-1,3-benzodiazole-6-carboxylic acid] | 9.5 | – |
| O=C(O)c1ccc2nc(CN3CC=C(c4cnc5ccc(Cc6ccc(Cl)cc6F)nn45)CC3)n(C[C@@H]3CCO3)c2n1 [Compound 192a, 2-[(4-{6-[(4-chloro-2-fluorophenyl)methyl]imidazo[1,2-b]pyridazin-3-yl}-1,2,3,6-tetrahydropyridin-1-yl)methyl]-3-{[(2S)-oxetan-2-yl]methyl}-3H-imidazo[4,5-b]pyridine-5-carboxylic acid] | 6.9 | – |
| CCOCCn1c(CN2CCC(Oc3ccnc(Cc4ccc(Cl)cc4)n3)CC2)nc2ccc(C(=O)O)nc21 [Compound 194, 2-((4-((2-(4-chlorobenzyl)pyrimidin-4-yl)oxy)piperidin-1-yl)methyl)-3-(2-ethoxyethyl)-3H-imidazo[4,5-b]pyridine-5-carboxylic acid] | 8.5 | – |
| COC(C)Cn1c(CN2CCC(Oc3ccnc(Cc4ccc(Cl)cc4)n3)CC2)nc2ccc(C(=O)O)nc21 (centres unmarked) [Compound 195, 2-((4-((2-(4-chlorobenzyl)pyrimidin-4-yl)oxy)piperidin-1-yl)methyl)-3-(2-methoxypropyl)-3H-imidazo[4,5-b]pyridine-5-carboxylic acid] | 9.2 | – |
